Assay results as given in patent US7560227B2, “Biomarkers of vulnerable atherosclerotic plaques and methods of use” (University of Massachusetts, priority 2005, dated 2009).
Where a SMILES comes first, the peptide text is derived from it. Bridges are numbered along the chain shown (N, C = ends). Where no end group is shown, it is not given here.

Tests used:
myeloperoxidase [1] = target: T1, myeloperoxidase (Homo sapiens, UniProt P05164); assay: Binding of 99mTc-labeled phage clones to 125I-myeloperoxidase, separated on spin column / Sepharose 6B column; conditions: for Relative Binding (% bound): 99mTc-phage (10^10 pfu) with 125I-myeloperoxidase (750 ng), 15-30 minutes at 4 degrees Celsius, after subtraction of binding by control phage MPO-4; for Binding to 125I-myeloperoxidase compared with control clone MPO-4 (in words): shift of 125I to higher molecular weight fractions associated with 99mTc-phage
Method: (§1) FIG. 6 is a graphical representation of the results of studies of the binding of several phage clones to ^125-myeloperoxidase where the relative magnitude of binding was MPO-17>MPO-6>MPO-15 >MPO-1 >control (MPO-4). The consensus phage clones were radiolabeled with ^99mTc, using mercaptoacetyltriglycine (MAG3) as chelator, and the myeloperoxidase was iodinated using iodogen. The ^99mTc-phage were incubated with the ^125I-myeloperoxidase for 15-30 minutes, and then separated on a Sepharose 6B column. The shift of ^125I to the higher molecular weight fractions associated with ^99mTc-phage indicated binding.
After three rounds of selection, twenty phage clones were sequenced and four peptides occurring in more than one clone were identified. The phage clones representing the four sequences occurring in more than one clone plus a clone having a sequence that occurred in no other selected clone were amplified, titered and conjugated with NHS-MAG3 for radiolabeling with ^99mTc. See Winnard, P. Jr, et al., Preparation and use of NHS-MAG3 for technetium-99m labeling of DNA, Nucl. Med. Biol. 1997 July; 24(5):425-32. Myeloperoxidase was radiolabeled with ^125I via iodogen and a fixed amount (750 ng) was incubated with a constant number of phage plaque forming units (10^10) of each of the four consensus clones, plus a non-consensus clone as control, each radiolabeled with ^99mTc. Myeloperoxidase was added at what was estimated to be a 10-fold molar excess over peptide. After incubating for 15-30 minutes at 4 degrees Celsius, the binding of myeloperoxidase to each phage clone was determined by separating phage from myeloperoxidase using both a MicroSpin S-200 HR spin column and a Sepharose 6B open mini-column. The ^99mTc counts were used to identify the phage-containing fractions while the 125I counts in those fractions identified the concentration of bound myeloperoxidase. The peptide sequences of the 16 mer cysteine-constrained peptides in the display domain of the PVIII coat protein and the relative binding of four clones (MPO-1, MPO-6, MPO-15 and MPO-17) are listed in Table 2, below.
as §1, with “FIG. 8” for “FIG. 6”, “several bacteriophage” for “several phage”, “to ^125I-myeloperoxidase” for “to ^125-myeloperoxidase”, “was MPO-17>MPO-6>MPO-15>MPO-1>control” for “was MPO-17>MPO-6>MPO-15 >MPO-1 >control”, “using MAG3” for “using mercaptoacetyltriglycine (MAG3)”

myeloperoxidase [2] = target: T1, myeloperoxidase; assay: SE-HPLC (Superose-12) evaluation of twenty-three mer peptide binding to myeloperoxidase; conditions: for Shift to a retention time associated with myeloperoxidase: SE-HPLC, Superose-12 column, over incubation time
Method: (§2) FIGS. 7A and 7B are graphical representations of the results an evaluation of twenty- three mer peptide binding by SE-HPLC using a Superose-12 column. […] For example, the UV peak for the enzyme increased from 16% of total protein at 5 mm of incubation to 46% of total protein after 2 h incubation.
as §2, with “results of” for “results”, “of MPO-17 twenty-three” for “of twenty- three”, “mer polypeptide” for “mer peptide”, “5 min” for “5 mm”, “2 hours” for “2 h”

myeloperoxidase [3] = target: T2, myeloperoxidase (Homo sapiens, UniProt P05164); assay: Histological staining of bone marrow tissue slides with biotinylated peptides; conditions: biotinylated peptide, anti-biotin antibody, ABC alkaline phosphatase kit, hematoxylin counterstain
T2 construct: Slides of bone marrow tissue were used since they are known to contain myeloperoxidase; from tissue; host or cells: bone marrow tissue slides
T2 sequence (P05164 49-745): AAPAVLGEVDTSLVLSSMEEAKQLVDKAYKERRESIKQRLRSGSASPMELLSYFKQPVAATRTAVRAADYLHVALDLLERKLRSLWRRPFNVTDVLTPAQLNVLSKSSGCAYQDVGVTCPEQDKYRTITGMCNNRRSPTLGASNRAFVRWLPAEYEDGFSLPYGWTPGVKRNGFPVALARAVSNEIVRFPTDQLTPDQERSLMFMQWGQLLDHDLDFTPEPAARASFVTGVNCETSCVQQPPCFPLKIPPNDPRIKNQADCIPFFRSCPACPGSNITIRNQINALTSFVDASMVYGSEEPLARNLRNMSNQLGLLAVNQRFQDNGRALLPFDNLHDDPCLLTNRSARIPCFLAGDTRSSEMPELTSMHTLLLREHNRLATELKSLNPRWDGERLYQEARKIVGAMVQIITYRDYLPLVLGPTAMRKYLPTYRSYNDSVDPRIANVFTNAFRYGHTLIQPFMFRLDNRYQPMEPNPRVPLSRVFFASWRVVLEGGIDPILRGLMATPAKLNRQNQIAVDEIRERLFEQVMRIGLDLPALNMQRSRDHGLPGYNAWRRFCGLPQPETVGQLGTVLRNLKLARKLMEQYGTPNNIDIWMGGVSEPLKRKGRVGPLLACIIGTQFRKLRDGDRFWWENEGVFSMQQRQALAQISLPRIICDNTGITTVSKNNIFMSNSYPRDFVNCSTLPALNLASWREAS
Method: FIGS. 9A-9D show the results of histological studies. Slides of bone marrow tissue were used since they are known to contain myeloperoxidase. Treatments were as follows: Figure 9A, anti-myeloperoxidase antibody followed with biotinylated secondary antibody; FIG. 9B, biotinylated twenty-three mer MPO-17 peptide; FIG. 9C, biotinylated twenty-three mer control peptide; FIG. 9D, incubated with both the biotinylated twenty-three mer MPO-17 peptide and the biotinylated twenty-three mer control peptide, without primary antibody. Each slide was treated with an anti-biotin antibody and the ABC alkaline phosphatase kit (Vector labs) and counterstained with hematoxylin.
The binding of identified peptides to components of plaques was confirmed histologically as follows. Peptide sequences found in multiple selected clones were used to produce peptides using synthetic techniques. Peptides may also be produced using recombinant DNA techniques. The peptides are conjugated with a detectable label, such as biotin using known protocols. The biotin-labeled peptides are used to confirm the binding specificity determined in Example 1 and Example 2 by immunohistochemical analyses of tissue such as vulnerable plaques or tissues rich in components vulnerable plaques that have been exposed to biotin-labeled peptides.
FIGS. 9A-9D show the results of such histological studies. […]

LS-174T tumor cubes = assay: Binding of 99mTc-labeled phage to LS-174T solid tumor cubes; conditions: ~1 mm tumor cubes incubated with serial dilutions of 99mTc-labeled phage
Method: Since TAG-72 expression is known to be higher in solid tumors than cells from culture, LS-174T cells were grown in nude mice, the resulting tumors removed and cut into ˜1 mm cubes for an assay using solid tumors. In addition to the labeled phage, the ^99mTc-labeled antibody was used to evaluate the level of antigen expression in tumor. For assay the tumor cubes were incubated with serial dilutions of ^99mTc-labeled phage or the ^99mTc-B72.3 antibody.

[4] = system: LS-174T colon cancer cells; assay: Binding of 99mTc-labeled phage to LS-174T colon cancer cells in vitro; type: cell-based; conditions: for Relative Binding: Table 6, relative to control phage A3-12; for Binding compared to the control phage (A3-12): 6×10^5 cells per 50 μl, ~1.5×10^11 virions 99mTc-labeled phage
Method: For in vitro studies, LS-174T colon cancer cells, known to express the TAG-72 protein were incubated at a fixed ratio of cells (6×10^5 per 50 μl) to ^99mTc-labeled phage, ˜1.5×10^11 virions.

TAG-72 = assay: Competition of unlabeled phage with 99mTc-labeled B72.3 antibody on LS-174T tumor cubes; type: binding; conditions: 1 ng 99mTc-labeled B72.3 antibody, serial dilutions of unlabeled phage
Method: To test if phage A3-10 could compete with the B72.3, the LS-174T tumor cubes were incubated with 1 ng of ^99mTc-labeled B72.3 antibody and serial dilutions of unlabeled A3-10 phage. […] Thus, the phage is likely blocking the antibody, an indication of binding to the same target.

Molecule	Relative Binding (% bound) (myeloperoxidase [1]) [%]	Binding to 125I-myeloperoxidase compared with control clone MPO-4 (in words) (myeloperoxidase [1])	Relative Binding [4]	also measured
TVMLCNPMEQGCRWMC (displayed on f88-4 phage pVIII; Chemically synthesized, clone MPO-15) [f88-4/Cys6 phage clone displaying this 16 mer cysteine-constrained peptide in the pVIII coat protein]	4.5	binding above the binding of the control clone MPO-4		Relative Binding (% bound) (myeloperoxidase [1]; listed as MPO-5): 4.5%
CC(C)C[C@H](NC(=O)[C@@H]1CSSC[C@H](NC(=O)[C@H](CCC(N)=O)NC(=O)CNC(=O)[C@H](CO)NC(=O)[C@@H](N)CCCNC(=N)N)C(=O)N[C@@H](Cc2c[nH]cn2)C(=O)N[C@@H](CC(=O)O)C(=O)N[C@@H](CC(=O)O)C(=O)N[C@@H]([C@@H](C)O)C(=O)N[C@@H](Cc2c[nH]c3ccccc23)C(=O)N[C@@H](CC(N)=O)C(=O)N1)C(=O)N[C@@H](C)C(=O)N[C@@H](CS)C(=O)N[C@H](C(=O)NCC(=O)NCC(=O)N[C@@H](CO)C(=O)NCC(=O)NCC(=O)NCC(=O)N[C@@H](CS)C(=O)O)C(C)C [MPO-17 twenty-three mer peptide] (H-RSGQCHDDTWNCLACVGGSGGGC-OH; disulfide 5-12 (inferred); N-terminus and C-terminus assumed)				Shift to a retention time associated with myeloperoxidase (myeloperoxidase [2]): gradual shift; UV peak for the enzyme (myeloperoxidase [2]; after 2 hours incubation of peptide with myeloperoxidase): 46 % of total protein; UV peak for the enzyme (myeloperoxidase [2]; at 5 min of incubation of peptide with myeloperoxidase): 16 % of total protein; Staining pattern (myeloperoxidase [3]): staining pattern similar to that seen with the anti-myeloperoxidase antibody
AMPVCSLDRKACTAYQ [MPO-1]	3.9	binding above the binding of the control clone MPO-4		
RSGQCHDDTWNCLACV (displayed on f88-4 phage pVIII; Chemically synthesized, clone MPO-17) [f88-4/Cys6 phage clone displaying this 16 mer cysteine-constrained peptide in the pVIII coat protein]	8	highest binding		
QMKQCWVNTATCWGLSGGSGGGC (cysteine pairing not given here; also: biotinylated) [biotinylated for histology]				Shift to a retention time associated with myeloperoxidase (myeloperoxidase [2]): no shift; Staining pattern (myeloperoxidase [3]; listed as control peptide): Only the bkie hematoxylin stain is observed
MNYYCHQTTKTCRTHS [A3-12]			1	Phage bound with phage added (LS-174T tumor cubes): no change in phage bound except at the highest concentration
NPGTCKDKWIECLLNG [A3-10]			4.3	Phage bound with phage added (LS-174T tumor cubes): linear increase in phage bound with phage added; Activity associated with the binding of 99mTc-B72.3 antibody (TAG-72): decreased with an increase in unlabeled phage added; Binding compared to the control phage (A3-12) [4]: 4,3 fold
HVLGCSYATNSCAHNA (displayed on f88-4 phage pVIII; Chemically synthesized, clone MPO-5) [MPO-6, f88-4/Cys6 phage clone displaying this 16 mer cysteine-constrained peptide in the pVIII coat protein]	5.8	binding above the binding of the control clone MPO-4		
LKNYCRKCSNRCTPTG [A3-21]			1	
NLIWCRKEFARCTSDM [A3-19]			1.5	Binding compared to the control phage (A3-12) [4]: about 1.5 fold
